Laboratory results as given in US20210017174A1, “IDENTIFICATION AND USE OF ERK5 INHIBITOR” (Bayer Aktiengesellschaft, priority 2018, published 2021).

Target: T1, ERK5 (Homo sapiens, UniProt Q13164)
T1 construct: host or cells: E. coli
Assay: TR-FRET-based Erk5 activity inhibition assay (biochemical assay ERK5)
Conditions: @ 20 μM; read-out: inhibition in biochemical ERK5 assay at a single concentration

T1 sequence (Q13164 1-398): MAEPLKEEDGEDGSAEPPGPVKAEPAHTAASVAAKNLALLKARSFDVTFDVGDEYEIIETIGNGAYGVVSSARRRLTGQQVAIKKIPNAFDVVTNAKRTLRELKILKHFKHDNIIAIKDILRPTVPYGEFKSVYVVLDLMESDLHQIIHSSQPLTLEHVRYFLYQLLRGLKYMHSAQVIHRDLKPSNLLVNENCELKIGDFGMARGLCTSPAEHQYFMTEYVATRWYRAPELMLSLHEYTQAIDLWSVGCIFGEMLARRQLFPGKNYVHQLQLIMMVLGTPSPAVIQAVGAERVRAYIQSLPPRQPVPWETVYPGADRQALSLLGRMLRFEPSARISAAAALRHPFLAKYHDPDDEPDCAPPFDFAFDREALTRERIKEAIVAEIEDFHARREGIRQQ

Row | Structure (SMILES) | inhibition at 20 µM
1 | COc1cc2ncnc(C3CCN(C(=O)c4ccccc4OC(F)(F)F)CC3)c2cc1OC [Example 28, [4-(6,7-Dimethoxyquinazolin-4-yl)piperidin-1-yl][2-(trifluoromethoxy)phenyl]-methanone] | 16%
2 | O=C(O)c1ccc2c(C3CCN(C(=O)c4ccc(OC(F)(F)F)cc4)CC3)ncnc2c1 [Example 32, 4-{1-[4-(Trifluoromethoxy)benzoyl]piperidin-4-yl}quinazoline-7-carboxylic Acid] | 44.2%

Same assay, conditions: TR-FRET, 250 μM ATP, 1 μM substrate peptide, 60 min at 22° C.; read-out: IC50 value biochemiocal ERK5 asssay

Row | Structure (SMILES) | IC50
3 | COc1ccc2c(C3CCN(C(=O)c4ccc(OC(F)(F)F)cc4C)CC3)ncnc2c1 [Example 61, [4-(7-Methoxyquinazolin-4-yl)piperidin-1-yl][2-methyl-4-(trifluoromethoxy)-phenyl]methanone] | 0.504 µM
4 | COc1cc2ncnc(C3CCN(C(=O)c4ccc(C(C)C)cc4)CC3)c2cc1OC [Example 18, [4-(6,7-Dimethoxyquinazolin-4-yl)piperidin-1-yl][4-(propan-2-yl)phenyl]-methanone] | 0.358 µM
5 | COc1ccc2c(C3CCN(C(=O)c4ccc(OC(F)(F)F)c(C)c4)CC3)ncnc2c1 [Example 62, [4-(7-Methoxyquinazolin-4-yl)piperidin-1-yl][3-methyl-4-(trifluoromethoxy)-phenyl]methanone] | 0.274 µM
6 | COc1cc2ncnc(C3CCN(C(=O)c4ccc(OC(F)F)cc4)CC3)c2cc1OC [Example 19, [4-(Difluoromethoxy)phenyl][4-(6,7-dimethoxyquinazolin-4-yl)piperidin-1-yl]methanone] | 0.165 µM
7 | COCCOc1ccc(C(=O)N2CCC(c3ncnc4cc(OC)c(OC)cc34)CC2)cc1 [Example 24, [4-(6,7-Dimethoxyquinazolin-4-yl)piperidin-1-yl][4-(2-methoxyethoxy)phenyl]-methanone] | 9.66 µM
8 | COc1cc2ncnc(C3CCN(C(=O)c4ccc(Cl)cc4)CC3)c2cc1OC [Example 4, 4-[1-(4-Chlorobenzoyl)piperidin-4-yl]-6,7-dimethoxyquinazoline] | 0.77 µM
9 | COc1cc2ncnc(C3CCN(C(=O)c4ccc(Br)cc4)CC3)c2cc1OC [Example 12, (4-Bromophenyl)[4-(6,7-dimethoxyquinazolin-4-yl)piperidin-1-yl]methanone] | 0.19 µM
10 | COc1cc2ncnc(C3CCN(C(=O)c4ccc(COCC(F)(F)F)cc4)CC3)c2cc1OC [Example 21, [4-(6,7-Dimethoxyquinazolin-4-yl)piperidin-1-yl]{4-[(2,2,2-trifluoroethoxy)methyl]phenyl}-methanone] | 2.66 µM
11 | O=C(Nc1ccccc1)c1ccc2c(C3CCN(C(=O)c4ccc(OC(F)(F)F)cc4)CC3)ncnc2c1 [Example 45, N-Phenyl-4-{1-[4-(trifluoromethoxy)benzoyl]piperidin-4-yl}quinazoline-7-carboxamide] | 3.26 µM
12 | COc1cc2ncnc(C3CCN(C(=O)c4ccccc4)CC3)c2cc1OC [Example 9, [4-(6,7-Dimethoxyquinazolin-4-yl)piperidin-1-yl](phenyl)methanone] | 6.17 µM
13 | CCCc1ccc(C(=O)N2CCC(c3ncnc4cc(OC)c(OC)cc34)CC2)cc1 [Example 20, [4-(6,7-Dimethoxyquinazolin-4-yl)piperidin-1-yl](4-propylphenyl)methanone] | 0.281 µM

Continued, values first:

Row | IC50 | Structure (SMILES)
14 | 1.27 µM | CC(=O)Nc1ccc2c(C3CCN(C(=O)c4ccc(OC(F)(F)F)cc4)CC3)ncnc2c1 [Example 38, N-(4-{1-[4-(Trifluoromethoxy)benzoyl]piperidin-4-yl}quinazolin-7-yl)acetamide]
15 | 0.293 µM | CC(C)COc1ccc2c(C3CCN(C(=O)c4ccc(OC(F)(F)F)cc4)CC3)ncnc2c1 [Example 46, {4-[7-(2-Methylpropoxy)quinazolin-4-yl]piperidin-1-yl}[4-(trifluoromethoxy)-phenyl]methanone]
16 | 0.27 µM | O=C(c1ccc(OC(F)(F)F)cc1)N1CCC(c2ncnc3cc(OCC4COC4)ccc23)CC1 [Example 48, {4-[7-(Oxetan-3-ylmethoxy)quinazolin-4-yl]piperidin-1-yl}[4-(trifluoromethoxy)-phenyl]methanone]
17 | 0.198 µM | CN(C)CCOc1ccc2c(C3CCN(C(=O)c4ccc(OC(F)(F)F)cc4)CC3)ncnc2c1 [Example 56, Formic Acid—(4-{7-[2-(dimethylamino)ethoxy]quinazolin-4-yl}piperidin-1-yl)[4-(trifluoromethoxy)phenyl]methanone (1:1)]
18 | 2.24 µM | O=C(c1ccc2c(C3CCN(C(=O)c4ccc(OC(F)(F)F)cc4)CC3)ncnc2c1)N1CCOCC1 [Example 44, Morpholin-4-yl(4-{1-[4-(trifluoromethoxy)benzoyl]piperidin-4-yl}quinazolin-7-yl)methanone]
19 | 1.3 µM | O=C(c1ccc(OC(F)(F)F)cc1)N1CCC(c2ncnc3cc(N4CCCCC4=O)ccc23)CC1 [Example 55, 1-(4-{1-[4-(Trifluoromethoxy)benzoyl]piperidin-4-yl}quinazolin-7-yl)piperidin-2-one]
20 | 0.253 µM | NC(=O)c1ccc2c(C3CCN(C(=O)c4ccc(OC(F)(F)F)cc4)CC3)ncnc2c1 [Example 33, 4-{1-[4-(Trifluoromethoxy)benzoyl]piperidin-4-yl}quinazoline-7-carboxamide]
21 | 0.192 µM | O=C(c1ccc(OC(F)(F)F)cc1)N1CCC(c2ncnc3cc(O)ccc23)CC1 [Example 36, [4-(7-Hydroxyquinazolin-4-yl)piperidin-1-yl][4-(trifluoromethoxy)phenyl]-methanone]
22 | 0.274 µM | CC(C)(O)COc1ccc2c(C3CCN(C(=O)c4ccc(OC(F)(F)F)cc4)CC3)ncnc2c1 [Example 63, {4-[7-(2-Hydroxy-2-methylpropoxy)quinazolin-4-yl]piperidin-1-yl}[4-(trifluoro-methoxy)phenyl]-methanone]
23 | 1.68 µM | O=C(c1ccc(OC(F)(F)F)cc1)N1CCC(c2ncnc3ccccc23)CC1 [Example 58, [4-(Quinazolin-4-yl)piperidin-1-yl][4-(trifluoromethoxy)phenyl]methanone]
24 | 0.224 µM | O=C(c1ccc(OC(F)(F)F)cc1)N1CCC(c2ncnc3cc(Br)ccc23)CC1 [Example 40, [4-(7-Bromoquinazoline-4-yl)piperidin-1-yl][4-(trifluoromethoxy)phenyl]-methanone]
25 | 1.59 µM | O=C(c1ccc2c(C3CCN(C(=O)c4ccc(OC(F)(F)F)cc4)CC3)ncnc2c1)N1CCCC1 [Example 43, Pyrrolidin-1-yl(4-{1-[4-(trifluoromethoxy)benzoyl]piperidin-4-yl}quinazolin-7-yl)methanone]
26 | 0.867 µM | Nc1ccc2c(C3CCN(C(=O)c4ccc(OC(F)(F)F)cc4)CC3)ncnc2c1 [Example 37, [4-(7-Aminoquinazolin-4-yl)piperidin-1-yl][4-(trifluoromethoxy)phenyl]-methanone]
27 | 0.98 µM | CN(C)C(=O)c1ccc2c(C3CCN(C(=O)c4ccc(OC(F)(F)F)cc4)CC3)ncnc2c1 [Example 42, N,N-Dimethyl-4-{1-[4-(trifluoromethoxy)benzoyl]piperidin-4-yl}quinazoline-7-carboxamide]
28 | 0.351 µM | CS(=O)(=O)Nc1ccc2c(C3CCN(C(=O)c4ccc(OC(F)(F)F)cc4)CC3)ncnc2c1 [Example 39, N-(4-{1-[4-(Trifluoromethoxy)benzoyl]piperidin-4-yl}quinazolin-7-yl)methane-sulfonamide]
29 | 0.506 µM | N#Cc1ccc2c(C3CCN(C(=O)c4ccc(OC(F)(F)F)cc4)CC3)ncnc2c1 [Example 34, 4-{1-[4-(Trifluoromethoxy)benzoyl]piperidin-4-yl}quinazoline-7-carbonitrile]
